# Test results taken from ChEMBL document CHEMBL1201862, “PubChem BioAssay data set” (2004).
#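 Values below derive from 48-hour exposures of cells grown in 96-well plates, with endpoints linearly interpolated between the two concentrations bracketing the appropriate inhibition level. Abbreviation: GI50, concentration required for 50% inhibition of growth.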 Active and inactive are the calls of the source. Cut-off read from the data, not from the text of the source: active = GI50 up to about 1.1 µM and inactive = higher.
# Assays:
# Assay in all cases: NCI tumour cell line growth inhibition, 48 h
# M14 = test system: M14
# SK-MEL-5 = test system: SK-MEL-5
# OVCAR-5 = test system: OVCAR-5
# A498 = test system: A498
# 786-0 = test system: 786-0
# LXFL 529 = test system: LXFL 529
# MOLT-4 = test system: MOLT-4
# SNB-78 = test system: SNB-78
# K562 = test system: K562
# DMS-114 = test system: DMS-114
# SK-MEL-28 = test system: SK-MEL-28
# M19-MEL = test system: M19-MEL
# SN12C = test system: SN12C
# ACHN = test system: ACHN
# U-251 = test system: U-251
# NCI-H23 = test system: NCI-H23
# XF498 = test system: XF498
# KM-20L2 = test system: KM-20L2
# IGROV-1 = test system: IGROV-1
# Malme-3M = test system: Malme-3M
# EKVX = test system: EKVX
# DLD-1 = test system: DLD-1
# SK-OV-3 = test system: SK-OV-3
# TK-10 = test system: TK-10
# CCRF-CEM = test system: CCRF-CEM
# SF-268 = test system: SF-268
# RPMI-8226 = test system: RPMI-8226
# COLO 205 = test system: COLO 205
# SF-539 = test system: SF-539
# SNB-75 = test system: SNB-75
# HT-29 = test system: HT-29
# UACC-257 = test system: UACC-257
# HCC 2998 = test system: HCC 2998
# SW-620 = test system: SW-620
# UO-31 = test system: UO-31
# UACC-62 = test system: UACC-62
# SF-295 = test system: SF-295
# SK-MEL-2 = test system: SK-MEL-2
# OVCAR-3 = test system: OVCAR-3
# RXF 393 = test system: RXF 393
# OVCAR-4 = test system: OVCAR-4
# NCI-H226 = test system: NCI-H226
# LOX IMVI = test system: LOX IMVI
# OVCAR-8 = test system: OVCAR-8
# HOP-62 = test system: HOP-62
# SNB-19 = test system: SNB-19
# HCT-116 = test system: HCT-116
# HL-60 = test system: HL-60
# SR = test system: SR
# NCI-H522 = test system: NCI-H522
# HCT-15 = test system: HCT-15
# HOP-92 = test system: HOP-92
# NCI-H460 = test system: NCI-H460
# A549 = test system: A549
# DMS-273 = test system: DMS-273
# KM12 = test system: KM12
# MDA-MB-435 = test system: MDA-MB-435
# MDA-MB-231 = test system: MDA-MB-231
# CAKI-1 = test system: CAKI-1
# PC-3 = test system: PC-3
# MDA-N = test system: MDA-N
# T47D = test system: T47D
# Hs-578T = test system: Hs-578T
# MCF7 = test system: MCF7
# BT-549 = test system: BT-549
# DU-145 = test system: DU-145
structure (smiles),measurement,setting,value
O=C(CC(C(=O)c1ccsc1)c1cccs1)c1cccs1 (stereo unspecified),GI50,M14,59.3 µM (inactive)
same,GI50,SK-MEL-5,22.9 µM (inactive)
same,GI50,OVCAR-5,> 100 µM (inactive)
same,GI50,A498,66.4 µM (inactive)
same,GI50,786-0,> 100 µM (inactive)
same,GI50,LXFL 529,38.5 µM (inactive)
same,GI50,MOLT-4,33 µM (inactive)
same,GI50,SNB-78,> 100 µM (inactive)
same,GI50,K562,73.5 µM (inactive)
same,GI50,DMS-114,41.9 µM (inactive)
same,GI50,SK-MEL-28,> 100 µM (inactive)
same,GI50,M19-MEL,96.2 µM (inactive)
same,GI50,SN12C,65.8 µM (inactive)
same,GI50,ACHN,99.1 µM (inactive)
same,GI50,U-251,> 100 µM (inactive)
same,GI50,NCI-H23,> 100 µM (inactive)
same,GI50,XF498,70.1 µM (inactive)
same,GI50,KM-20L2,> 100 µM (inactive)
same,GI50,IGROV-1,> 100 µM (inactive)
same,GI50,Malme-3M,> 100 µM (inactive)
same,GI50,EKVX,42.5 µM (inactive)
same,GI50,DLD-1,> 100 µM (inactive)
same,GI50,SK-OV-3,> 100 µM (inactive)
same,GI50,TK-10,> 100 µM (inactive)
same,GI50,CCRF-CEM,43.1 µM (inactive)
same,GI50,SF-268,> 100 µM (inactive)
same,GI50,RPMI-8226,33.1 µM (inactive)
same,GI50,COLO 205,94.8 µM (inactive)
same,GI50,SF-539,> 100 µM (inactive)
same,GI50,SNB-75,28.1 µM (inactive)
same,GI50,HT-29,82.2 µM (inactive)
same,GI50,UACC-257,51.4 µM (inactive)
same,GI50,HCC 2998,> 100 µM (inactive)
same,GI50,SW-620,> 100 µM (inactive)
same,GI50,UO-31,28.1 µM (inactive)
same,GI50,UACC-62,75.7 µM (inactive)
same,GI50,SF-295,37.5 µM (inactive)
same,GI50,SK-MEL-2,> 100 µM (inactive)
same,GI50,OVCAR-3,38.7 µM (inactive)
same,GI50,RXF 393,> 100 µM (inactive)
same,GI50,OVCAR-4,48.6 µM (inactive)
same,GI50,NCI-H226,> 100 µM (inactive)
same,GI50,LOX IMVI,68.2 µM (inactive)
same,GI50,OVCAR-8,83.8 µM (inactive)
same,GI50,HOP-62,> 100 µM (inactive)
same,GI50,SNB-19,> 100 µM (inactive)
same,GI50,HCT-116,43.4 µM (inactive)
same,GI50,HL-60,56.8 µM (inactive)
same,GI50,SR,29.6 µM (inactive)
same,GI50,NCI-H522,33.4 µM (inactive)
same,GI50,HCT-15,65.5 µM
same,GI50,HOP-92,> 100 µM (inactive)
same,GI50,NCI-H460,49 µM (inactive)
same,GI50,A549,42.6 µM (inactive)
same,GI50,DMS-273,84.5 µM (inactive)
COC(OC)C(C)CC(=O)N(C)C (stereo unspecified),GI50,M14,> 100 µM (inactive)
same,GI50,SK-MEL-5,> 100 µM (inactive)
same,GI50,OVCAR-5,> 100 µM (inactive)
same,GI50,A498,> 100 µM (inactive)
same,GI50,786-0,> 100 µM (inactive)
same,GI50,LXFL 529,> 100 µM (inactive)
same,GI50,MOLT-4,> 100 µM (inactive)
same,GI50,SNB-78,> 100 µM (inactive)
same,GI50,K562,> 100 µM (inactive)
same,GI50,DMS-114,> 100 µM (inactive)
same,GI50,SK-MEL-28,> 100 µM (inactive)
same,GI50,M19-MEL,> 100 µM (inactive)
same,GI50,SN12C,> 100 µM (inactive)
same,GI50,ACHN,> 100 µM (inactive)
same,GI50,U-251,> 100 µM (inactive)
same,GI50,XF498,> 100 µM (inactive)
same,GI50,KM-20L2,> 100 µM (inactive)
same,GI50,IGROV-1,> 100 µM (inactive)
same,GI50,EKVX,> 100 µM (inactive)
same,GI50,DLD-1,> 100 µM (inactive)
same,GI50,SK-OV-3,> 100 µM (inactive)
same,GI50,TK-10,> 100 µM (inactive)
same,GI50,CCRF-CEM,> 100 µM (inactive)
same,GI50,SF-268,> 100 µM (inactive)
same,GI50,RPMI-8226,> 100 µM (inactive)
same,GI50,COLO 205,> 100 µM (inactive)
same,GI50,SF-539,> 100 µM (inactive)
same,GI50,SNB-75,> 100 µM (inactive)
same,GI50,HT-29,> 100 µM (inactive)
same,GI50,HCC 2998,> 100 µM (inactive)
same,GI50,SW-620,> 100 µM (inactive)
same,GI50,UO-31,> 100 µM (inactive)
same,GI50,UACC-62,> 100 µM (inactive)
same,GI50,SF-295,> 100 µM (inactive)
same,GI50,SK-MEL-2,> 100 µM (inactive)
same,GI50,KM12,> 100 µM (inactive)
same,GI50,OVCAR-3,> 100 µM (inactive)
same,GI50,OVCAR-4,> 100 µM (inactive)
same,GI50,NCI-H226,> 100 µM (inactive)
same,GI50,LOX IMVI,> 100 µM (inactive)
same,GI50,OVCAR-8,> 100 µM (inactive)
same,GI50,HOP-62,> 100 µM (inactive)
same,GI50,SNB-19,> 100 µM (inactive)
same,GI50,HCT-116,> 100 µM (inactive)
same,GI50,HL-60,> 100 µM (inactive)
same,GI50,HCT-15,> 100 µM
same,GI50,HOP-92,> 100 µM (inactive)
same,GI50,NCI-H460,> 100 µM (inactive)
same,GI50,A549,> 100 µM (inactive)
same,GI50,DMS-273,> 100 µM (inactive)
CC1OC(OC2C[C@](O)(C(=O)CF)Cc3c(O)c4c(c(O)c32)C(=O)c2ccccc2C4=O)CC(N)C1O (stereo partly specified),GI50,M14,0.0263 µM (active)
same,GI50,SK-MEL-5,< 0.0113 µM (active)
same,GI50,OVCAR-5,0.0719 µM (active)
same,GI50,A498,0.233 µM (active)
same,GI50,MDA-MB-435,0.0746 µM (active)
same,GI50,786-0,< 0.01 µM (active)
same,GI50,MDA-MB-231,0.043 µM (active)
same,GI50,LXFL 529,0.0596 µM (active)
same,GI50,MOLT-4,< 0.01 µM (active)
same,GI50,SNB-78,0.241 µM (active)
same,GI50,K562,< 0.0153 µM (active)
same,GI50,DMS-114,< 0.0109 µM (active)
same,GI50,SK-MEL-28,0.177 µM (active)
same,GI50,M19-MEL,0.0178 µM (active)
same,GI50,SN12C,< 0.01 µM (active)
same,GI50,ACHN,< 0.01 µM (active)
same,GI50,U-251,< 0.013 µM (active)
same,GI50,NCI-H23,< 0.01 µM (active)
same,GI50,XF498,< 0.0164 µM (active)
same,GI50,KM-20L2,0.0574 µM (active)
same,GI50,IGROV-1,0.0877 µM (active)
same,GI50,Malme-3M,< 0.0109 µM (active)
same,GI50,EKVX,0.507 µM (active)
same,GI50,DLD-1,0.0484 µM (active)
same,GI50,SK-OV-3,0.0194 µM (active)
same,GI50,TK-10,0.1 µM (active)
same,GI50,CAKI-1,< 0.01 µM (active)
same,GI50,CCRF-CEM,< 0.01 µM (active)
same,GI50,PC-3,0.0275 µM (active)
same,GI50,SF-268,0.0255 µM (active)
same,GI50,MDA-N,0.108 µM (active)
same,GI50,T47D,0.0106 µM (active)
same,GI50,RPMI-8226,< 0.01 µM (active)
same,GI50,COLO 205,0.0296 µM (active)
same,GI50,SF-539,0.0561 µM (active)
same,GI50,SNB-75,0.0161 µM (active)
same,GI50,HT-29,< 0.0156 µM (active)
same,GI50,UACC-257,0.0794 µM (active)
same,GI50,HCC 2998,0.163 µM (active)
same,GI50,SW-620,< 0.0116 µM (active)
same,GI50,UO-31,0.0392 µM (active)
same,GI50,UACC-62,< 0.0104 µM (active)
same,GI50,Hs-578T,0.0103 µM (active)
same,GI50,MCF7,< 0.01 µM (active)
same,GI50,SF-295,< 0.01 µM (active)
same,GI50,SK-MEL-2,0.168 µM (active)
same,GI50,KM12,0.0305 µM (active)
same,GI50,BT-549,0.131 µM (active)
same,GI50,OVCAR-3,0.233 µM (active)
same,GI50,RXF 393,0.0637 µM (active)
same,GI50,OVCAR-4,0.152 µM (active)
same,GI50,NCI-H226,< 0.01 µM (active)
same,GI50,LOX IMVI,< 0.01 µM (active)
same,GI50,OVCAR-8,0.0115 µM (active)
same,GI50,HOP-62,< 0.01 µM (active)
same,GI50,SNB-19,< 0.014 µM (active)
same,GI50,HCT-116,< 0.01 µM (active)
same,GI50,HL-60,< 0.01 µM (active)
same,GI50,DU-145,< 0.01 µM (active)
same,GI50,SR,< 0.01 µM (active)
same,GI50,NCI-H522,0.0202 µM (active)
same,GI50,HCT-15,0.0588 µM
same,GI50,HOP-92,0.0483 µM (active)
same,GI50,NCI-H460,< 0.01 µM (active)
same,GI50,A549,< 0.01 µM (active)
same,GI50,DMS-273,< 0.01 µM (active)
